Here are results for 2 molecules from patent US11998610B2, “Conjugates and methods of using the same” (Flagship Pioneering Innovations V, Inc., priority 2018, dated 2024).

One test concerns CT26.CL25 cells. The test is described as follows: Cell viability readout (CellTiter-Glo) with bacteria-free media. Type of test: cell-based, mouse. The following applies: 10 nM compound, CT26.CL25 cells, 72 h, CellTiter-Glo. The method, then: Example 100: Cell-Based Assay of Bacterial Enzymes with Mammalian CT26.CL25 Mouse Colorectal Carcinoma Viability Readout
Bacteria-free media was incubated with the indicated test compound. ((R)—N1-(2-(methylamino)ethyl)-2-octanamidosuccinamide, a recognition element-linker conjugate lacking a payload, was serially diluted 1:1000 in DMSO and […] in medium+10% FBS to give a final concentration of 10 nM. Compound 35, Compound 76, Compound 77, Compound 78, Compound 79, and SN-38 were serially diluted 1:1000 in DMSO and 1:1000 in medium to give a final concentration of 10 nM, and then the bacteria-free supernatants were tested for their ability to kill mammalian cells. As an additional control, the test compound will also be incubated with bacteria-free media. The above steps can also be performed in the presence of E. coli (CFT073 ATCC 700928, Nissle 1917, or BL21 (DE3)) to effect cleavage of the conjugates of the application.
On Day 1, CT26.CL25 cells (15,000 cells/well) were seeded in triplicate into a 24 well plate and incubated overnight in 100 μL of complete medium. The reactions (bacteria or media blank) was pelleted by centrifugation, and then the supernatant was passed through a 0.2 μm sterile filter to remove residual bacteria.
On Day 2, 300 μL of a 10 nM solution of each compound in media were applied to separate wells of CT26.CL25 cells as prepared on Day 1. The cells were incubated at 37° C. for 72 h. After this point, viability was assessed using a CellTiter-Glo kit.
Binning of the compounds was achieved by measuring cell growth or arrest (e.g. remaining cells are >90% viable, >80% viable, >70% viable, >60% viable, >50% viable, >40% viable, >30% viable, >20% viable, or >10% viable).

Another test concerns E. coli Nissle 1917. The test is described as follows: Payload release in the presence of fecal matter, ClbP positive E. coli. Format: cell-based. Particulars: 10 μM compound, anaerobic, 37° C., 20 h, LCMS. The text has this: (§1) This example is representative of the methods described in Example 103. Fecal samples were subjected to metagenomic whole-genome shotgun sequencing followed by querying the dataset for the presence of the clbP gene or by attempting to amplify the gene with primers specific for it by qPCR. Samples that gave a signal below the detection limit were used in subsequent steps. The fecal sample was resuspended as a 15% (w/v) slurry in Anaerobic Phosphate Buffer Saline.
(§2) Following steps 1 and 2 as detailed in Example 98, E. coli CFT073 ATCC 700928, E. coli Nissle 1917, or E. coli BL21(DE3) were grown in liquid culture.
(§3) In an anaerobic chamber, the E. coli strains were added to the fecal samples obtained in step 1 at a dilution level calculated to represent 0, 1, 10, 50, 90, 99, or 100% of all organisms present in PRAS dilution blank on a 200 μL volume. The test compound (10 μM final concentration) was added to the mixture. The test compound was also added to a bacteria-free media control under similar conditions. The plate was sealed and incubated at 37° C. for 20 h. Under similar conditions, a standard curve of both the starting material and the payload compound was made in bacteria-free media.
(§4) After 20 h, an aliquot was tested for breakdown and release of a payload by LCMS by diluting serially to a final dilution of 1:100 first with Acetonitrile (10× dilution) and then with (1:1) Mobile Phase A-0.1% Formic Acid in Water:Mobile Phase B-0.1% Formic acid in Acetonitrile (1 OX dilution), with absolute quantification compared to the external standard curve. In an ideal case, the amount of payload released in the reaction(s) with ClbP-encoding E. coli was >75% of the theoretical maximum, and none was released in the E. coli BL21(DE3) and media-alone conditions. In an acceptable case, the amount of payload released in the reaction(s) with ClbP-encoding E. coli was 25-75% of the theoretical maximum, and <25% of the theoretical maximum was released in the E. coli BL21(DE3) and media-alone conditions. In a non-preferred case, the amount of payload released in the reactions(s) with ClbP-encoding E. coli was <25% of the theoretical maximum, and >25% of the theoretical maximum was released in the E. coli BL21(DE3) and media-alone conditions.

The test system of a further test is E. coli BL21(DE3). The test is described as follows: Payload release in the presence of fecal matter, ClbP negative E. coli. Format: cell-based. The following applies: 10 μM compound, anaerobic, 37° C., 20 h, LCMS.
Text: as §1, §2, §3, §4

As to `CCCCCCCC(=O)N[C@H](CC(N)=O)C(=O)NCCN(C)C(=O)Oc1ccc2nc3c(c(CC)c2c1)Cn1c-3cc2c(c1=O)COC(=O)[C@]2(O)CC` [Example 76, (S)-4,11-diethyl-4-hydroxy-3,14-dioxo-3,4,12,14-tetrahydro-1H-pyrano[3′,4′:6,7]indolizino[1,2-b]quinolin-9-yl (2-((R)-4-amino-2-octanamido-4-oxobutanamido)ethyl)(methyl)carbamate], the “Bacteria-free media (Luminescence, average of three runs)” value in the test on CT26.CL25 cells is 282345. The “% payload released in ClbP positive (Nissle 1917) at 1:1 ratio of E. coli to fecal bacteria” value in the test with E. coli Nissle 1917 is given as 25%. Besides, the “% payload released in ClbP negative (BL21 DE3) at 1:1 ratio of E. coli to fecal bacteria” value in the test with E. coli BL21(DE3) is on record as 0%.

For the molecule `CCc1c2c(nc3ccc(OC(=O)N(C)CCNC(=O)[C@@H](CC(N)=O)NC(=O)CCCc4ccccc4)cc13)-c1cc3c(c(=O)n1C2)COC(=O)[C@]3(O)CC` [Example 78, (S)-4,11-diethyl-4-hydroxy-3,14-dioxo-3,4,12,14-tetrahydro-1H-pyrano[3′,4′:6,7]indolizino[1,2-b]quinolin-9-yl (2-((R)-4-amino-4-oxo-2-(4-phenylbutanamido)butanamido)ethyl)(methyl)carbamate], the “Bacteria-free media (Luminescence, average of three runs)” value with CT26.CL25 cells is reported as 317645. Further, in the test on E. coli Nissle 1917, the “% payload released in ClbP positive (Nissle 1917) at 1:1 ratio of E. coli to fecal bacteria” value was determined as 0%. Further, the “% payload released in ClbP negative (BL21 DE3) at 1:1 ratio of E. coli to fecal bacteria” value in the test with E. coli BL21(DE3) is given as 0%.
